Measurements as given in publication PMC11044166, “Synthesis, DFT Calculations, In Silico Studies, and Antimicrobial Evaluation of Benzimidazole-Thiadiazole Derivatives” (ACS Omega, 2024).
In brackets after ≈: the same amount, converted by molar mass. Read-outs that look alike come from different tables or passages of the source.

What was measured:
[1] = system: C. albicans (ATCC 24433); assay: Antifungal microdilution MIC; format: cell-based; conditions: Candida albicans, ATCC24433
Description: (§1) The antifungal and antibacterial activities of the synthesized compounds (5a–i) were evaluated in vitro against E. coli (ATCC 25922), S. marcescens (ATCC 8100), K. pneumoniae (ATCC 13883), P. aeruginosa (ATCC 27853), E. faecalis (ATCC 2942), B. subtilis, S. aureus (ATCC 29213), S. epidermidis (ATCC 12228), C. albicans (ATCC 24433), C. krusei (ATCC 6258), and C. parapsilosis (ATCC 22019). The final synthesized compounds were evaluated as antibacterial and antifungal references, in comparison to azithromycin, voriconazole, and fluconazole. Tables 1 and 2 provide a summary of the antimicrobial activity test results and the minimum inhibitory concentrations (MICs) of the compounds (5a–i).
(§2) The antimicrobial activity of the final compounds (5a–i) was screened against eight species of pathogenic bacteria and […] (E. coli (ATCC 25922), S. marcescens (ATCC 8100), K. pneumonia (ATCC 13883), P. aeruginosa (ATCC 27853), E. faecalis (ATCC 2942), B. subtilis (NRRL NRS 744), S. aureus (ATCC 29213), S. epidermidis (ATCC 12228), C. albicans (ATCC 24433), C. glabrata (ATCC 90030), C. krusei (ATCC 6258), and C. parapsilosis (ATCC 22 019)) according to the microdilution standard methods CLSI M07-A9 (2012) and NCCLS M27-A2 (2002), as described in the previous study.[25],[26]

[2] = system: C. parapsilosis (ATCC 22019); assay: Antifungal microdilution MIC; format: cell-based; conditions: Lodderomyces parapsilosis, ATCC22019
Description: as §1, §2

[3] = system: C. krusei (ATCC 6258); assay: Antifungal microdilution MIC; format: cell-based; conditions: Pichia kudriavzevii, ATCC6258
Description: as §1, §2

[4] = system: E. faecalis (ATCC 2942); assay: Antibacterial microdilution MIC; format: cell-based; conditions: Enterococcus faecalis, ATCC2942
Description: as §1, §2

[5] = system: S. marcescens (ATCC 8100); assay: Antibacterial microdilution MIC; format: cell-based; conditions: Serratia marcescens, ATCC8100
Description: as §1, §2

[6] = system: E. coli (ATCC 25922); assay: Antibacterial microdilution MIC; format: cell-based; conditions: Escherichia coli, ATCC25922
Description: as §1, §2

[7] = system: P. aeruginosa (ATCC 27853); assay: Antibacterial microdilution MIC; format: cell-based; conditions: Pseudomonas aeruginosa, ATCC27853
Description: as §1, §2

[8] = system: S. epidermidis (ATCC 12228); assay: Antibacterial microdilution MIC; format: cell-based; conditions: Staphylococcus epidermidis, ATCC12228
Description: as §1, §2

[9] = system: S. aureus (ATCC 29213); assay: Antibacterial microdilution MIC; format: cell-based; conditions: Staphylococcus aureus, ATCC29213
Description: as §1, §2

[10] = system: B. subtilis; assay: Antibacterial microdilution MIC; format: cell-based; conditions: Bacillus subtilis
Description: as §1, §2

[11] = system: K. pneumoniae (ATCC 13883); assay: Antibacterial microdilution MIC; format: cell-based; conditions: Klebsiella pneumoniae, ATCC13883
Description: as §1, §2

[12] = system: L929 fibroblast cell line; assay: Cytotoxicity MTT assay on healthy cells; format: cell-based; conditions: L929 healthy mouse fibroblast cells
Description: The effect of the compounds between 5a–i on the viability of the L929 cell line was analyzed by MTT assay. The MTT method was performed as previously described.[27]

[13] = C. albicans (ATCC 24433), read-out: MIC
[14] = C. parapsilosis (ATCC 22019), read-out: MIC
[15] = C. krusei (ATCC 6258), read-out: MIC
[16] = E: E. faecalis (ATCC 2942), Gram-positive, read-out: MIC
[17] = B: S. marcescens (ATCC 8100), Gram-negative, read-out: MIC
[18] = A: E. coli (ATCC 25922), Gram-negative, read-out: MIC
[19] = D: P. aeruginosa (ATCC 27853), Gram-negative, read-out: MIC
[20] = H: S. epidermidis (ATCC 12228), Gram-positive, read-out: MIC
[21] = G: S. aureus (ATCC 29213), Gram-positive, read-out: MIC
[22] = F: B. subtilis, Gram-positive, read-out: MIC
[23] = C: K. pneumoniae (ATCC 13883), Gram-negative, read-out: MIC

melting point	MIC [1, 13]	MIC [2, 14]	MIC [3, 15]	MIC [4, 16]	MIC [5, 17]	MIC [6, 18]	MIC [7, 19]	MIC [8, 20]	MIC [9, 21]	MIC [10, 22]	MIC [11, 23]	SMILES	IC50 [12]	further results
321.6 °C	7.81 µg/mL (≈ 24.3 µM)	15.6 µg/mL (≈ 48.6 µM)	31.2 µg/mL (≈ 97.2 µM)	3.9 µg/mL (≈ 12.1 µM)	62.5 µg/mL (≈ 194 µM)	62.5 µg/mL (≈ 194 µM)	62.5 µg/mL (≈ 194 µM)	31.2 µg/mL (≈ 97.2 µM)	31.2 µg/mL (≈ 97.2 µM)	125 µg/mL (≈ 389 µM)	62.5 µg/mL (≈ 194 µM)	CCNc1nnc(-c2ccc(-c3nc4ccccc4[nH]3)cc2)s1 [Compound 5b, N-Ethyl-5-(4-(1H-Benzo[d]imidazole-2-Yl)phenyl)-1,3,4-Thiadiazole-2-Amine]	119 ± 9.64 µM	
325.6 °C	31.2 µg/mL (≈ 102 µM)	125 µg/mL (≈ 407 µM)	125 µg/mL (≈ 407 µM)	3.9 µg/mL (≈ 12.7 µM)	62.5 µg/mL (≈ 203 µM)	250 µg/mL (≈ 813 µM)	62.5 µg/mL (≈ 203 µM)	7.81 µg/mL (≈ 25.4 µM)	7.81 µg/mL (≈ 25.4 µM)	125 µg/mL (≈ 407 µM)	125 µg/mL (≈ 407 µM)	CNc1nnc(-c2ccc(-c3nc4ccccc4[nH]3)cc2)s1 [Compound 5a, N-Methyl-5-(4-(1H-Benzo[d]imidazole-2-Yl)phenyl)-1,3,4-Thiadiazole-2-Amine]	152 ± 3.64 µM	
275.2 °C	7.81 µg/mL (≈ 23.3 µM)	125 µg/mL (≈ 373 µM)	125 µg/mL (≈ 373 µM)	15.6 µg/mL (≈ 46.6 µM)	250 µg/mL (≈ 745 µM)	125 µg/mL (≈ 373 µM)	125 µg/mL (≈ 373 µM)	31.2 µg/mL (≈ 93.2 µM)	31.2 µg/mL (≈ 93.2 µM)	125 µg/mL (≈ 373 µM)	125 µg/mL (≈ 373 µM)	CCCNc1nnc(-c2ccc(-c3nc4ccccc4[nH]3)cc2)s1 [Compound 5g, N-Propyl-5-(4-(1H-Benzo[d]imidazole-2-Yl)phenyl)-1,3,4-Thiadiazole-2-Amine]		
276.5 °C	7.81 µg/mL (≈ 20.8 µM)	125 µg/mL (≈ 333 µM)	125 µg/mL (≈ 333 µM)	15.6 µg/mL (≈ 41.6 µM)	125 µg/mL (≈ 333 µM)	125 µg/mL (≈ 333 µM)	125 µg/mL (≈ 333 µM)	7.81 µg/mL (≈ 20.8 µM)	125 µg/mL (≈ 333 µM)	250 µg/mL (≈ 666 µM)	125 µg/mL (≈ 333 µM)	c1ccc2[nH]c(-c3ccc(-c4nnc(NC5CCCCC5)s4)cc3)nc2c1 [Compound 5e, N-Cyclohexyl-5-(4-(1H-Benzo[d]imidazole-2-Yl)phenyl)-1,3,4-Thiadiazole-2-Amine]	102 ± 12 µM	
294.8 °C	7.81 µg/mL (≈ 19.3 µM)	125 µg/mL (≈ 309 µM)	125 µg/mL (≈ 309 µM)	7.81 µg/mL (≈ 19.3 µM)	62.5 µg/mL (≈ 155 µM)	125 µg/mL (≈ 309 µM)	125 µg/mL (≈ 309 µM)	31.2 µg/mL (≈ 77.4 µM)	7.81 µg/mL (≈ 19.3 µM)	125 µg/mL (≈ 309 µM)	125 µg/mL (≈ 309 µM)	Clc1ccccc1Nc1nnc(-c2ccc(-c3nc4ccccc4[nH]3)cc2)s1 [Compound 5d, N-(2-Chlorophenyl)-5-(4-(1H-Benzo[d]imidazole-2-Yl)phenyl)-1,3,4-Thiadiazole-2-Amine]	197 ± 14.7 µM	
324.7 °C	3.9 µg/mL (≈ 11.6 µM)	125 µg/mL (≈ 373 µM)	125 µg/mL (≈ 373 µM)	3.9 µg/mL (≈ 11.6 µM)	125 µg/mL (≈ 373 µM)	125 µg/mL (≈ 373 µM)	125 µg/mL (≈ 373 µM)	3.9 µg/mL (≈ 11.6 µM)	62.5 µg/mL (≈ 186 µM)	125 µg/mL (≈ 373 µM)	125 µg/mL (≈ 373 µM)	CC(C)Nc1nnc(-c2ccc(-c3nc4ccccc4[nH]3)cc2)s1 [Compound 5f, N-Isopropyl-5-(4-(1H-Benzo[d]imidazole-2-Yl)phenyl)-1,3,4-Thiadiazole-2-Amine]	175 ± 3.02 µM	
315.6 °C	31.2 µg/mL (≈ 89.4 µM)	125 µg/mL (≈ 358 µM)	125 µg/mL (≈ 358 µM)	15.6 µg/mL (≈ 44.7 µM)	62.5 µg/mL (≈ 179 µM)	125 µg/mL (≈ 358 µM)	31.2 µg/mL (≈ 89.4 µM)	62.5 µg/mL (≈ 179 µM)	62.5 µg/mL (≈ 179 µM)	125 µg/mL (≈ 358 µM)	62.5 µg/mL (≈ 179 µM)	CC(C)CNc1nnc(-c2ccc(-c3nc4ccccc4[nH]3)cc2)s1 [Compound 5i, N-Isobutyl-5-(4-(1H-Benzo[d]imidazole-2-Yl)phenyl)-1,3,4-Thiadiazole-2-Amine]		

Second part, the molecule before the results:

SMILES	melting point	MIC [1, 13]	MIC [2, 14]	MIC [3, 15]	MIC [4, 16]	MIC [5, 17]	MIC [6, 18]	MIC [7, 19]	MIC [8, 20]	MIC [9, 21]	MIC [10, 22]	MIC [11, 23]	IC50 [12]	further results
ClCCNc1nnc(-c2ccc(-c3nc4ccccc4[nH]3)cc2)s1 [Compound 5c, N-(2-Chloroethyl)-5-(4-(1H-Benzo[d]imidazole-2-Yl)phenyl)-1,3,4-Thiadiazole-2-Amine]	191.2 °C													MIC [1]: 31.2 µg/mL (≈ 87.8 µM); MIC [2]: 125 µg/mL (≈ 351 µM); MIC [3]: 125 µg/mL (≈ 351 µM); MIC [4]: 15.6 µg/mL (≈ 43.9 µM); MIC [5]: 62.5 µg/mL (≈ 176 µM); MIC [6]: 62.5 µg/mL (≈ 176 µM); MIC [7]: 125 µg/mL (≈ 351 µM); MIC [8]: 31.2 µg/mL (≈ 87.8 µM); MIC [9]: 31.2 µg/mL (≈ 87.8 µM); MIC [10]: 62.5 µg/mL (≈ 176 µM); MIC [11]: 62.5 µg/mL (≈ 176 µM)
OC(Cn1cncn1)(Cn1cncn1)c1ccc(F)cc1F [fluconazole, reference compound]		7.81 µg/mL (≈ 25.5 µM)	7.81 µg/mL (≈ 25.5 µM)	7.81 µg/mL (≈ 25.5 µM)										
CC[C@H]1OC(=O)[C@H](C)[C@@H](O[C@H]2C[C@@](C)(OC)[C@@H](O)[C@H](C)O2)[C@H](C)[C@@H](O[C@@H]2O[C@H](C)C[C@H](N(C)C)[C@H]2O)[C@](C)(O)C[C@@H](C)CN(C)[C@H](C)[C@@H](O)[C@]1(C)O [azithromycin, reference compound]					< 0.97 µg/mL	< 0.97 µg/mL	< 0.97 µg/mL	< 0.97 µg/mL	< 0.97 µg/mL	< 0.97 µg/mL	< 0.97 µg/mL	< 0.97 µg/mL		
C[C@@H](c1ncncc1F)[C@](O)(Cn1cncn1)c1ccc(F)cc1F [voriconazole, reference compound]		3.9 µg/mL (≈ 11.2 µM)	3.9 µg/mL (≈ 11.2 µM)	3.9 µg/mL (≈ 11.2 µM)										
COc1ccc(Nc2nnc(-c3ccc(-c4nc5ccccc5[nH]4)cc3)s2)cc1 [Compound 5h, N-(4-Methoxyphenyl)-5-(4-(1H-Benzo[d]imidazole-2-Yl)phenyl)-1,3,4-Thiadiazole-2-Amine]	276.7 °C	3.9 µg/mL (≈ 9.76 µM)	125 µg/mL (≈ 313 µM)	125 µg/mL (≈ 313 µM)	3.9 µg/mL (≈ 9.76 µM)	62.5 µg/mL (≈ 156 µM)	31.2 µg/mL (≈ 78.2 µM)	31.2 µg/mL (≈ 78.2 µM)	31.2 µg/mL (≈ 78.2 µM)	31.2 µg/mL (≈ 78.2 µM)	125 µg/mL (≈ 313 µM)	62.5 µg/mL (≈ 156 µM)	76 ± 9.4 µM	
